Experiment [1] concerns the target Dual specificity tyrosine-phosphorylation-regulated kinase 1B (Homo sapiens, UniProt Q9Y463). The experiment can be described thus: Navigating the Kinome. Panel member name: DYRK1B. In kind it is functional.
In experiment [2] the target is Mitogen-activated protein kinase 8 (Homo sapiens, UniProt P45983). In kind it is functional.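 Also: value comes from one member of a kinome-wide kinase profiling panel.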
The target in experiment [3] is Glycogen synthase kinase-3 alpha (Homo sapiens, UniProt P49840). Format: functional.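 Also: GSK3A result taken from a broad kinome-wide kinase panel.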
In experiment [4] the target is Serine/threonine-protein kinase TBK1 (Homo sapiens, UniProt Q9UHD2). Description: Navigating the Kinome. Panel member name: TBK1. In kind it is functional.
For experiment [5], the target named is Tyrosine-protein kinase JAK3 (Homo sapiens, UniProt P52333). In kind it is functional.
In experiment [6] the target is T1, Sentrin-specific protease 8 (Homo sapiens, UniProt Q96LD8).
T1 sequence (Q96LD8 whole entry): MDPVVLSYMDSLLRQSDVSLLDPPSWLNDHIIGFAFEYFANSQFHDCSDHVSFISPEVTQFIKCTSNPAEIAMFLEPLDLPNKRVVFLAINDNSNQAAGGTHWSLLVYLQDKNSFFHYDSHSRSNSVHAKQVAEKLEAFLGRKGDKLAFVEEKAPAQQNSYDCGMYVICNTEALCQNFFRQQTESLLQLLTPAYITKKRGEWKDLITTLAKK
In kind it is functional.

Experiment [7] can be described thus: alpha-synuclein stem-loop translation blockers – luminescence, H4 neuroglioblastoma cells, dose confirmation, confirmation (AID 2454).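 Also: H4 neuroglioblastoma cells carrying an alpha-synuclein 5'UTR luciferase reporter; potency for inhibition of the luciferase signal.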 In kind it is functional, cell-based.
The nature of experiment [8]: viability loss in CEM21 cells – cell-based, CellTiter-Glo luminescence, cherry-picked, cytotoxicity control for viral fusion inhibitor project, dose response (AID 652042).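 Also: potency for signal decrease meaning cytotoxicity.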 In kind it is functional.
Experiment [9] can be described thus: luciferase reporter signal reduction – luminescence, H4-C neuroglioblastoma cells, dose response (AID 2458).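 Also: H4 neuroglioblastoma cells stably carrying a luciferase reporter gene fusion.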 In kind it is functional, cell-based.
The nature of experiment [10]: blockers of HIV-1 envelope-mediated cell-cell fusion – cherry-pick, dose response (AID 652057). Format: functional, cell-based.
For experiment [11], the target named is Maternal embryonic leucine zipper kinase (Homo sapiens, UniProt Q14680). In kind it is functional.
For experiment [12], the target named is Serine/threonine-protein kinase 17A (Homo sapiens, UniProt Q9UEE5). Format: functional.
The target of experiment [13] is Misshapen-like kinase 1 (Homo sapiens, UniProt Q8N4C8). In kind it is functional.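 Also: kinome panel screen with MINK as the panel member.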
Experiment [14] addresses T2, Heat shock factor protein 1 (Mus musculus, UniProt P38532).
T2 sequence (P38532 whole entry): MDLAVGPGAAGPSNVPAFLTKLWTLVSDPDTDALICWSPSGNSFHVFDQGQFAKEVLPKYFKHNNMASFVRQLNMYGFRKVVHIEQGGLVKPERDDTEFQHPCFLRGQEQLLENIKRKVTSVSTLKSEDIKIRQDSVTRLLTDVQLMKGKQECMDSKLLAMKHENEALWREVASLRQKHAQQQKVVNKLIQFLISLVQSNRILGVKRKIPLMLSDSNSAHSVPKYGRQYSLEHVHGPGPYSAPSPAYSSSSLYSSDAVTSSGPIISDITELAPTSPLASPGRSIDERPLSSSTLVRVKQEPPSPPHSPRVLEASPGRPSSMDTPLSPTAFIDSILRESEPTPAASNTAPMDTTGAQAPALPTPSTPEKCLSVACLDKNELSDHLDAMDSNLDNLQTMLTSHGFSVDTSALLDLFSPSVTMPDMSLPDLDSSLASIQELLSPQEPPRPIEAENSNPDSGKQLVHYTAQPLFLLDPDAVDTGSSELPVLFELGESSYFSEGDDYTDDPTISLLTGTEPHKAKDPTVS
The experiment can be described thus: decrease of HSF1-responsive luciferase luminescence – cell-based, NIH3T3, dose retest, confirmation (AID 2382).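 Also: NIH3T3 fibroblasts with HSF1-driven luciferase reporter stressed by proteasome inhibitor MG132; luminescence from HSF1-driven luciferase expression after 8 hours of MG132 stress.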 In kind it is functional.

The subject of experiment [15] is HEK293. Description: optical interference in Abeta FP readout, dose response, artefact control for IDE activator project, biochemical, fluorescence polarization (AID 588442). To be noted: Homo sapiens. In kind it is functional, cell-based.
Experiment [16] concerns the target T3, Bcl-2-related protein A1 (Mus musculus, UniProt Q07440).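 Also: confirmatory dose–response counterscreen on Bfl-1, used to check hits from a UBC13 polyubiquitin inhibitor campaign.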
T3 sequence (Q07440 whole entry): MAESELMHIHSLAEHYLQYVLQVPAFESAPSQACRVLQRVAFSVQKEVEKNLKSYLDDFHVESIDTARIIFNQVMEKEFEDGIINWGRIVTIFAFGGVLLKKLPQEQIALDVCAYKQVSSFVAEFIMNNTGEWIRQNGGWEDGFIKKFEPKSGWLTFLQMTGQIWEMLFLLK
In kind it is functional.

Experiment [17] has as its target Intestinal-type alkaline phosphatase (Mus musculus, UniProt P24822). The experiment can be described thus: PubChem AID 488874. Format: functional.
For experiment [18], the target named is T4, Alkaline phosphatase, tissue-nonspecific isozyme (Homo sapiens, UniProt P05186).
T4 sequence (P05186 whole entry): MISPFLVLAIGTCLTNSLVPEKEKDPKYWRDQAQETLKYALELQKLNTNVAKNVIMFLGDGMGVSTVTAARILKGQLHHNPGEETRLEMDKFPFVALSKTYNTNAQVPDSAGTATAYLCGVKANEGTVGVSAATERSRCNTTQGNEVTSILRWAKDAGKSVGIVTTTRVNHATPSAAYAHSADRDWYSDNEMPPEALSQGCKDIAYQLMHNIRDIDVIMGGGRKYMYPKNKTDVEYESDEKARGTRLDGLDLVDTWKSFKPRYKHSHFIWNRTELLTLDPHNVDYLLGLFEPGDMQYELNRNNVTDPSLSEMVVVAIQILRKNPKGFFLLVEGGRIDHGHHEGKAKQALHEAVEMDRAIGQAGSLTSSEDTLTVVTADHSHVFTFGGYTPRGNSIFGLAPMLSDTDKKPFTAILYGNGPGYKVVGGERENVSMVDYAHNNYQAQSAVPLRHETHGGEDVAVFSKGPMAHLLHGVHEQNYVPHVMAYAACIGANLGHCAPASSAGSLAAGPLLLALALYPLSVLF
The experiment can be described thus: activation of tissue-nonspecific alkaline phosphatase – biochemical, TNAP isozyme, human IAP uHTS hits, selectivity assay for human IAP activator project, dose response (AID 488886).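 Also: potency of compounds raising TNAP activity as a selectivity check on IAP activators.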 Format: functional.

Experiment [19] deals with SUMO-activating enzyme (Homo sapiens, UniProt Q9UBT2). The experiment can be described thus: blockers of UBC9-mediated SUMO conjugation – biochemical, AlphaScreen, SUMOylation inhibitor project, confirmation (AID 2018). Format: functional.
Experiment [20] addresses Tyrosyl-DNA phosphodiesterase 2 (Homo sapiens, UniProt O95551). Description: potency against TDP2 phosphodiesterase activity – biochemical, epi absorbance, IC50, dose response (AID 743297).

Each structure is given as a SMILES string. Active and inactive are the calls of the source.

Sequence of Tyrosine-protein kinase JAK3 (P52333 whole entry): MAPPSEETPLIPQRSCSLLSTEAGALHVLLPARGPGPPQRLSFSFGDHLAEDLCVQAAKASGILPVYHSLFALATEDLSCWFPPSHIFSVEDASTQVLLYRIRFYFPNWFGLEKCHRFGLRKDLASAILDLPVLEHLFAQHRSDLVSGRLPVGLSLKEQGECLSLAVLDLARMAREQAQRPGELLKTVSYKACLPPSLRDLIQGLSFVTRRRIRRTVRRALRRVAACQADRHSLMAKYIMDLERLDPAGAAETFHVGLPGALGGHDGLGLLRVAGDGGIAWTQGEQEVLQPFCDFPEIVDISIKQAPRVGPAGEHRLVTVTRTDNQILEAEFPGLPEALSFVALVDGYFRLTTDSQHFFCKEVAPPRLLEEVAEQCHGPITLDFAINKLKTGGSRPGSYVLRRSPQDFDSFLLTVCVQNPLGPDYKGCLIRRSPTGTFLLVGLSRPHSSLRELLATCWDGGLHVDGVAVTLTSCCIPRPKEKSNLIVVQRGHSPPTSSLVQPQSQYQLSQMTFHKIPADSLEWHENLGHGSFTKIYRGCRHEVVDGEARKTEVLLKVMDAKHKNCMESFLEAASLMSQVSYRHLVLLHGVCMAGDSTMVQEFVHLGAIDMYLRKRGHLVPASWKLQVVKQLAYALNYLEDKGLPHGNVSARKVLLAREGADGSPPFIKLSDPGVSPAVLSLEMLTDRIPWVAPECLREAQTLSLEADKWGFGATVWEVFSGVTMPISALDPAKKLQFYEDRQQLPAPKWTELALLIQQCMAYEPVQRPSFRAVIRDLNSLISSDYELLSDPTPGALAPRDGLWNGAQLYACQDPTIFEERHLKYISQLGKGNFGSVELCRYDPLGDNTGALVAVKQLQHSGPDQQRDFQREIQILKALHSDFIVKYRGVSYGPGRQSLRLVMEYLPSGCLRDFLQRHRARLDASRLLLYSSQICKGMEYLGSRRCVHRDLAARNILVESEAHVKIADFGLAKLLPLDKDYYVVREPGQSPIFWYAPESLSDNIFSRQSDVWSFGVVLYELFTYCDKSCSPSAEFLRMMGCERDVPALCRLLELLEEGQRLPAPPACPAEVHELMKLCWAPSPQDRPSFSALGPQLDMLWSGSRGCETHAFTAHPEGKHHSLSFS
Sequence of Mitogen-activated protein kinase 8 (P45983 whole entry): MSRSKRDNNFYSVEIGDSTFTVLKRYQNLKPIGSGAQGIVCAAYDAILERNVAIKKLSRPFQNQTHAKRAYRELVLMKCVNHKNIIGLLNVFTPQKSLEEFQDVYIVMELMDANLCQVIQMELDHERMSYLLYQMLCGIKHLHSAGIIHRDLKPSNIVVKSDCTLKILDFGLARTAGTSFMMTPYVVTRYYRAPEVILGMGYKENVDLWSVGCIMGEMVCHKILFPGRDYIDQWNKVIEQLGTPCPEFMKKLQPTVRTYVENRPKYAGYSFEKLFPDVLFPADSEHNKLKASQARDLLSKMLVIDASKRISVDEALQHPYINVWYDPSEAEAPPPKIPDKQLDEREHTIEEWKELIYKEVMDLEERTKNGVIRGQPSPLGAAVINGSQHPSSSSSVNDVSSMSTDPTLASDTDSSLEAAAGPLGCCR
Sequence of Serine/threonine-protein kinase TBK1 (Q9UHD2 whole entry): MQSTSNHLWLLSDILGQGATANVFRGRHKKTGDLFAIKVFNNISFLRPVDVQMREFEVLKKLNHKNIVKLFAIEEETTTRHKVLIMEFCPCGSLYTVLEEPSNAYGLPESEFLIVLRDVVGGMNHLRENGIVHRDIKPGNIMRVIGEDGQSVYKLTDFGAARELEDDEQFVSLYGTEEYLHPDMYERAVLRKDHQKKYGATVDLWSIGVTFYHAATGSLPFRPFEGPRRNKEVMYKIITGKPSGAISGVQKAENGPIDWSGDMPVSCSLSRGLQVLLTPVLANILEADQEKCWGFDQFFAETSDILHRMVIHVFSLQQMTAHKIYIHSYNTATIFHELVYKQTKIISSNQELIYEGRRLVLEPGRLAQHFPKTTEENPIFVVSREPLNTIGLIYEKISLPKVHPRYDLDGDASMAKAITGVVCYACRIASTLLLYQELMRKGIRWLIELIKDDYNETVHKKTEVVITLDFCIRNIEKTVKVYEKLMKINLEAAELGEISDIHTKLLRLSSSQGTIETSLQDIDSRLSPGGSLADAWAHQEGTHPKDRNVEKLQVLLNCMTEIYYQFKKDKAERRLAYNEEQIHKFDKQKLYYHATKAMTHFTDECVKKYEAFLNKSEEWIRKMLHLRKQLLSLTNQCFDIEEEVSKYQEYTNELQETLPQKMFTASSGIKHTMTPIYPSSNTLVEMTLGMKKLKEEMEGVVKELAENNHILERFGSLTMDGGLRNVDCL
Sequence of Dual specificity tyrosine-phosphorylation-regulated kinase 1B (Q9Y463 whole entry): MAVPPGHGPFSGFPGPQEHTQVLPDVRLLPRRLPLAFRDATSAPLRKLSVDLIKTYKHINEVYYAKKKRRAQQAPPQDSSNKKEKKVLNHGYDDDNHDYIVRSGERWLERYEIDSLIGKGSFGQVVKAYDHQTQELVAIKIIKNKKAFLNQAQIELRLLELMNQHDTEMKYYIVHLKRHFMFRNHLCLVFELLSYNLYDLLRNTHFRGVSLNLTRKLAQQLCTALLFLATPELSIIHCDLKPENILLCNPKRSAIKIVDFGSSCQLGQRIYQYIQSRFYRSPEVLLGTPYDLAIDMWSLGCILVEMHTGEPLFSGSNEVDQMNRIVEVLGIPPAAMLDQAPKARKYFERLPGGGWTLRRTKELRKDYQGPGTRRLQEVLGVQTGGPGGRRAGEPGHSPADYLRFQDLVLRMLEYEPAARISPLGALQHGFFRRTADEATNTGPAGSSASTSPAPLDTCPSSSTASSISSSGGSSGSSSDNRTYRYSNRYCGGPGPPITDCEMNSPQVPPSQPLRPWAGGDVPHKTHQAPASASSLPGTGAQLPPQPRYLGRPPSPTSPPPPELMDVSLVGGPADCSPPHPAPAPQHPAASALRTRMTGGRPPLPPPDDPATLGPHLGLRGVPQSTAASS
Sequence of Glycogen synthase kinase-3 alpha (P49840 whole entry): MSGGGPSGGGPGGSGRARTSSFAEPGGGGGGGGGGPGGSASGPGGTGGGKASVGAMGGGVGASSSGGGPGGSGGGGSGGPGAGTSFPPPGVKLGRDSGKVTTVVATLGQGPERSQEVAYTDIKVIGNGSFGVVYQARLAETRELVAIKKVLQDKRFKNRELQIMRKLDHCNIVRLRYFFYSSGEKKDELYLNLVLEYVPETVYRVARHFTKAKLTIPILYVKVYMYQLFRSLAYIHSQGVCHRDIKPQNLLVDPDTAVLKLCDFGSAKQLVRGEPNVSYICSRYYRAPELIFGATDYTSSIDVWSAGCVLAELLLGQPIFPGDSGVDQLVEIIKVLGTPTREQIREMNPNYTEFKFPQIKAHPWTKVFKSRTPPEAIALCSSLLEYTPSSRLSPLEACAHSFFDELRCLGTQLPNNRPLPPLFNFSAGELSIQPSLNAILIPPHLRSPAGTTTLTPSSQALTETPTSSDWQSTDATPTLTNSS
Sequence of Serine/threonine-protein kinase 17A (Q9UEE5 whole entry): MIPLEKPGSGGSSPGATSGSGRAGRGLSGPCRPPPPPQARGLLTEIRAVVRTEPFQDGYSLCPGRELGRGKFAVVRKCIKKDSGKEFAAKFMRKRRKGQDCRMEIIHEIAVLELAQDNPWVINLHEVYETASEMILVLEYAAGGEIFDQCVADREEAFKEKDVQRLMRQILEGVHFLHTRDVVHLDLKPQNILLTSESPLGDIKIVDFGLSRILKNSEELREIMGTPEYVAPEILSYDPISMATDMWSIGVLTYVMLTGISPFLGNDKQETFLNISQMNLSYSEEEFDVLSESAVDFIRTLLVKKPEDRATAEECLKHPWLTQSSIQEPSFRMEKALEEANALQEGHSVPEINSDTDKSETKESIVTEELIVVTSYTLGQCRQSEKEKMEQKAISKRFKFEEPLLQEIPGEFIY
Sequence of Intestinal-type alkaline phosphatase (P24822 whole entry): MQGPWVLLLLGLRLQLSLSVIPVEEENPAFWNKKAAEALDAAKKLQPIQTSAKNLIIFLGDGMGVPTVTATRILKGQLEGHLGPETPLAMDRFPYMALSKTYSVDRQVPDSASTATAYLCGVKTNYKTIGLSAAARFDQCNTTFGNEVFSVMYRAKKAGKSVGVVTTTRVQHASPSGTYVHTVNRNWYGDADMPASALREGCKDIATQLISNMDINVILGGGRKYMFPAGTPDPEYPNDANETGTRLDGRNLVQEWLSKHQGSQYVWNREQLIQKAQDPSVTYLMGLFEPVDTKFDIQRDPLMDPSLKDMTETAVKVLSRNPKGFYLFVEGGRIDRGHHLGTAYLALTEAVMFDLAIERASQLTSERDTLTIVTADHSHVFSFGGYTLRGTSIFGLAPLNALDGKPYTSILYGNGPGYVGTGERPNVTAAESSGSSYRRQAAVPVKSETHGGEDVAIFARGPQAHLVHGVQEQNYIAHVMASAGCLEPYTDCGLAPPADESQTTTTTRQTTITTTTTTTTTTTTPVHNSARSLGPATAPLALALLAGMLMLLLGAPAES
Sequence of Tyrosyl-DNA phosphodiesterase 2 (O95551 whole entry): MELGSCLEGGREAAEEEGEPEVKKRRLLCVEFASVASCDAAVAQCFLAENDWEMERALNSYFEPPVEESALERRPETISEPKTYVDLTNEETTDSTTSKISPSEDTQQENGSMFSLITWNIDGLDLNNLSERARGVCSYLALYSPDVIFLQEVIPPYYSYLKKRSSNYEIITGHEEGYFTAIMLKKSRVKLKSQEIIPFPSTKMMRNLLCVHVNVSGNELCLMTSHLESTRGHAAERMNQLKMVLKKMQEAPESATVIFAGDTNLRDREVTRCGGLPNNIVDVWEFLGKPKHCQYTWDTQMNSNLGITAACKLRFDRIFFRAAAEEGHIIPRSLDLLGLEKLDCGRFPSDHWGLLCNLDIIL

With `Nc1c(-c2ccc(NC(=O)Nc3cccc(C(F)(F)F)c3)cc2)cnc2c(-c3ccc4c(c3)OCO4)cnn12`, the Ki is > 2.51 µM (inactive) in experiment [1]; > 5.01 µM (inactive) in [2]; > 3.98 µM (inactive) in experiment [3]; > 3.16 µM (inactive) in [4]; > 5.01 µM (inactive) in [5].

As to `Nc1nnc2c(n1)CCCC2`, the IC50 in experiment [6] was 6.32 µM (active).

Consider `CCN1C(=Cc2sc3ccccc3[n+]2C)C=Cc2cccc(C)c21`, for which the concentration giving a half-maximal response (EC50) in experiment [7] is > 12 µM (not active); in experiment [9] it was 3.14 µM (active). The AC50 in [8] was 4.69 µM (active); in experiment [10], 1.86 µM (active).

For the molecule `O=C(Nc1cc(-c2c[nH]c3ncccc23)cc(Cl)n1)c1ccccc1`, the Ki in [11] is 0.0316 µM (active); in experiment [12] it was 1.58 µM (active); in experiment [1], 0.316 µM (active); in [2] it was > 5.01 µM (inactive); in experiment [3], > 3.98 µM (inactive); in experiment [4], > 3.16 µM (inactive). Further, the values for the Ki in experiment [13] and in experiment [5] were > 2.51 µM (inactive) and > 5.01 µM (inactive), respectively.

Take `CNC[C@H](Cc1ccccc1)NC[C@@H](Cc1cccc2ccccc12)NCCc1ccc(C)cc1`: the EC50 in [14] was 18.5 µM (active); in [15], > 54.7 µM (inactive). Further, in experiment [16], the IC50 was > 20 µM (inactive).

In the case of `O=C(N/N=C/c1c(O)ccc2ccccc12)c1[nH]ncc1Br`, the half-maximal inhibitory concentration (IC50) in [17] was 36.5 µM (active). The EC50 in [18] was > 100 µM (inactive).

On to `O=C(Cc1ccccc1Cl)NC1(O)C(=O)c2ccccc2C1=O`, for which the IC50 was 5.64 µM (active) in experiment [19] and 11.5 µM (inactive) in [20].

(Values after ChEMBL document CHEMBL1201862, “PubChem BioAssay data set” (2004).)
